Values quoted from earlier work as cited in article PMC5657425 (Pediatric blood & cancer, 2016).

How the values were obtained:
[1] = test system: well-differentiated or dedifferentiated liposarcoma
[2] = test system: PPTP solid tumor xenografts
[3] = test system: Rh18 xenograft; settings: single agent

Row | SMILES | adverse effect in phase 1 and 2 evaluations [1] | stable disease among 20 patients treated ([1]; phase 2, well-differentiated or dedifferentiated liposarcoma) | response of the osteosarcoma panel ([2]; osteosarcoma panel) | objective regressions in twenty six solid tumor models with wild-type TP53 ([2]; prior PPTP testing) | response of Rh18 [3]
1 | CCOc1cc(C(C)(C)C)ccc1C1=N[C@@](C)(c2ccc(Cl)cc2)[C@@](C)(c2ccc(Cl)cc2)N1C(=O)N1CCN(CCCS(C)(=O)=O)CC1 [RG7112] | thrombocytopenia | 14 | no response | five | –
2 | COc1cc(C(=O)O)ccc1NC(=O)[C@@H]1N[C@@H](CC(C)(C)C)[C@](C#N)(c2ccc(Cl)cc2F)[C@H]1c1cccc(Cl)c1F [RG7388] | – | – | – | – | unresponsive
